{"source": "patent US20030119882A1", "about": "“Solid pharmaceutical composition containing torasemide” (priority 2001, published 2003)", "origin": "cited, not measured here", "conditions": "present in very fine dispersion in a pharmaceutical tablet; prior art, cf. EP 212 537 A", "data": [{"smiles": "Cc1cccc(Nc2ccncc2S(=O)(=O)NC(=O)NC(C)C)c1", "note": "[torasemide of the modification II, 1-isopropyl-3-[(4-m-toluidino-3-pyridyl)sulphonyl]urea]", "values": [{"measurement": "Rearrangement of modification II to modification I", "result": "rearranges more or less rapidly to the modification I"}]}]}
